Test results: US4376778A, “Antibiotic substances and processes for production thereof” (Meiji Seika Kaisha, Ltd., priority 1979, dated 1983)
In brackets after ≈: the same amount, converted by molar mass.

How the values were obtained:
[1] = system: Staphylococcus aureus FDA 209P JC-1; test: MIC by agar dilution method, Staphylococcus aureus FDA 209P JC-1; type: cell-based; conditions: FDA209P; Staphylococcus aureus FDA 209P JC-1, agar dilution; read-out: Minimum Inhibitory Concentration
Text: (§1) The minimum inhibitory concentrations of the SF-2080A substance and SF-2080B substance against various microorganisms as measured by the agar dilution method are shown in Table 4 below.

[2] = system: Staphylococcus aureus Smith; test: MIC by agar dilution method, Staphylococcus aureus Smith; type: cell-based; conditions: read-out: Minimum Inhibitory Concentration
Text: as §1

[3] = system: Staphylococcus epidermidis ATCC 14990; test: MIC by agar dilution method, Staphylococcus epidermidis ATCC 14990; type: cell-based; conditions: ATCC14990; Staphylococcus epidermidis ATCC 14990, agar dilution; read-out: Minimum Inhibitory Concentration
Text: as §1

[4] = system: Bacillus subtilis ATCC 6633; test: MIC by agar dilution method, Bacillus subtilis ATCC 6633; type: cell-based; conditions: ATCC6633; Bacillus subtilis ATCC 6633, agar dilution; read-out: Minimum Inhibitory Concentration
Text: as §1

[5] = system: Escherichia coli NIHJ JC-2; test: MIC by agar dilution method, Escherichia coli NIHJ JC-2; type: cell-based; conditions: NIHJJC2; Escherichia coli NIHJ JC-2, agar dilution; read-out: Minimum Inhibitory Concentration
Text: as §1

[6] = system: Escherichia coli K-12 IAM 1264; test: MIC by agar dilution method, Escherichia coli K-12 IAM 1264; type: cell-based; conditions: IAM1264; Escherichia coli K-12 IAM 1264, agar dilution; read-out: Minimum Inhibitory Concentration
Text: as §1

[7] = system: Salmonella typhi O-901-W; test: MIC by agar dilution method, Salmonella typhi O-901-W; type: cell-based; conditions: Salmonella enterica, read-out: Minimum Inhibitory Concentration
[8] = system: Shigella dysenteriae Shigae; test: microbe, parasite or virus in culture; type: cell-based; conditions: read-out: Minimum Inhibitory Concentration
[9] = system: Klebsiella pneumoniae ATCC 27763; test: MIC by agar dilution method, Klebsiella pneumoniae ATCC 27763; type: cell-based; conditions: ATCC27763; Klebsiella pneumoniae ATCC 27763, agar dilution; read-out: Minimum Inhibitory Concentration
Text: as §1

[10] = system: Proteus vulgaris OX-19; test: MIC by agar dilution method, Proteus vulgaris OX-19; type: cell-based; conditions: OX19; Proteus vulgaris OX-19, agar dilution; read-out: Minimum Inhibitory Concentration
Text: as §1

[11] = system: Serratia marcescens No. 1; test: MIC by agar dilution method, Serratia marcescens No. 1; type: cell-based; conditions: Serratia marcescens No. 1, agar dilution; read-out: Minimum Inhibitory Concentration
Text: as §1

[12] = system: Pseudomonas aeruginosa IAM 1007; test: MIC by agar dilution method, Pseudomonas aeruginosa IAM 1007; type: cell-based; conditions: IAM1007; Pseudomonas aeruginosa IAM 1007, agar dilution; read-out: Minimum Inhibitory Concentration
Text: as §1

[13] = system: Cryptococcus neoformans Cr-1; test: MIC by agar dilution method, Cryptococcus neoformans Cr-1; type: cell-based; conditions: CR1; Cryptococcus neoformans Cr-1, agar dilution; read-out: Minimum Inhibitory Concentration
Text: as §1

[14] = system: Trichophyton asteroides; test: MIC by agar dilution method, Trichophyton asteroides; type: cell-based; conditions: read-out: Minimum Inhibitory Concentration
Text: as §1

[15] = system: Trichophyton interdigital; test: MIC by agar dilution method, Trichophyton interdigital; type: cell-based; conditions: read-out: Minimum Inhibitory Concentration
Text: as §1

[16] = system: Aspergillus fumigatus; test: MIC by agar dilution method, Aspergillus fumigatus; type: cell-based; conditions: read-out: Minimum Inhibitory Concentration
Text: as §1

[17] = system: Pyricularia oryzae; test: microbe, parasite or virus in culture; type: cell-based; conditions: read-out: Minimum Inhibitory Concentration
[18] = system: Diaporthe citri; test: MIC by agar dilution method, Diaporthe citri; type: cell-based; conditions: read-out: Minimum Inhibitory Concentration
Text: as §1

[19] = system: various microorganisms; test: Agar dilution method, various microorganisms (overall statement); type: cell-based; conditions: overall statement in words
Text: as §1

[20] = system: Candida albicans C-A-24; test: MIC by plate dilution method, Candida albicans C-A-24; type: cell-based; conditions: CA24; Candida albicans C-A-24, plate dilution; read-out: minimum growth inhibitory concentration (MIC)
Text: (§2) The minimum growth inhibitory concentration (MIC) against each test strain according to the plate dilution method is shown below: […]

[21] = system: Cryptococcus neoformans Cr-1; test: MIC by plate dilution method, Cryptococcus neoformans CR-1; type: cell-based; conditions: CR1; Cryptococcus neoformans CR-1, plate dilution; read-out: minimum growth inhibitory concentration (MIC)
Text: as §2

[22] = system: Trichophyton asteroides; test: MIC by plate dilution method, Trichophyton asteroides; type: cell-based; conditions: read-out: minimum growth inhibitory concentration (MIC)
Text: as §2

[23] = system: Trichophyton interdigitale; test: MIC by plate dilution method, Trichophyton interdigitale; type: cell-based; conditions: read-out: minimum growth inhibitory concentration (MIC)
Text: as §2

[24] = system: Aspergillus fumigatus; test: MIC by plate dilution method, Aspergillus fumigatus; type: cell-based; conditions: read-out: minimum growth inhibitory concentration (MIC)
Text: as §2

[25] = system: fungi; test: Plate dilution method, fungi (overall statement); type: cell-based; conditions: overall statement in words
Text: as §2

[26] = Acute toxicity by intraperitoneal administration in mice; conditions: mouse, in vivo, ip
[27] = Solubility; type: physicochemical
[28] = system: Trichophyton asteroides; test: Infection treatment test of guinea pigs infected by Trichophyton asteroides, observation with the naked eye; type: in vivo, Trichophyton asteroides; guinea pig; conditions: for Effect on flush / Effect on scale / Effect on thickening of the affected skin: guinea pig, 1% solution, topical, once a day for 8 days, naked eye
Experimental: (§3) An infection treatment test of guinea pigs infected by a strain of Trichophyton asteroides on their backs was carried out using the liquid preparation having formulation as shown in Table 6.
(§4) Hairs were pulled off from a white Hartly guinea pig (4 guinea pigs per group) at 4 areas of the back thereof (2 areas on each side, 4×6 cm) and a Trichophyton asteroides-floating solution (liquid Sabouraud's culture medium; number of living cells: 2×10^7 /ml) was infected with a brush in an amount of 0.5 ml per each area. After 2 days from the infection, 0.25 ml of a 1% solution of SF-2080A substance (see Table 6) was applied at one area on each side, once a day and continuously for 8 days.
(§5) The same procedure as above was carried out, except using a 1% solution of pyrrolnitrin and a 1% solution of clotrimazole. Guinea pigs so treated were compared with those to which no treatment was applied.

[29] = system: Trichophyton asteroides; test: Infection treatment test of guinea pigs infected by Trichophyton asteroides, infected organism cultivation positive ratio; type: in vivo, Trichophyton asteroides; guinea pig; conditions: for infected organism cultivation positive ratio: after 8 days treatment, 1% solution, guinea pig
Experimental: as §3, §4, §5
After treatment for 8 days, 3 skin pieces were collected from each affecte area and cultivated on a Sabouraud's agar plate for 7 days to observe the infected organism cultivation positive ratio.

[30] = as compared with pyrrolnitrin and clotrimazole, statement in words

Structure (SMILES)	MIC [1] [µg/mL]	MIC [2] [µg/mL]	MIC [3] [µg/mL]	MIC [4] [µg/mL]	MIC [5] [µg/mL]	MIC [6] [µg/mL]	MIC [7] [µg/mL]	MIC [8] [µg/mL]	MIC [9] [µg/mL]	MIC [10] [µg/mL]	MIC [11] [µg/mL]	MIC [12] [µg/mL]	MIC [13] [µg/mL]	MIC [14] [µg/mL]	MIC [15] [µg/mL]	MIC [16] [µg/mL]	MIC [17] [µg/mL]	infected organism cultivation positive ratio ([29]; day of cultivation 3) [%]	infected organism cultivation positive ratio ([29]; day of cultivation 5) [%]	infected organism cultivation positive ratio ([29]; day of cultivation 7) [%]	further results
O=[N+]([O-])c1c[nH]c(Cl)c1Cl [SF-2080A substance]	1.56 (≈ 8.62 µM)	3.13 (≈ 17.3 µM)	3.13 (≈ 17.3 µM)	1.56 (≈ 8.62 µM)	6.25 (≈ 34.5 µM)	6.25 (≈ 34.5 µM)	6.25 (≈ 34.5 µM)	3.13 (≈ 17.3 µM)	6.25 (≈ 34.5 µM)	6.25 (≈ 34.5 µM)	6.25 (≈ 34.5 µM)	6.25 (≈ 34.5 µM)	25 (≈ 138 µM)	3.12 (≈ 17.2 µM)	1.56 (≈ 8.62 µM)	25 (≈ 138 µM)	0.8 (≈ 4.42 µM)	25	37	37	MIC [18]: 0.8 µg/mL (≈ 4.42 µM); antibacterial/antimicrobial effectiveness against the strains tested [19]: generally effective against all strains of bacteria tested; MIC [20]: 100 µg/mL (≈ 553 µM); MIC [21]: 25 µg/mL (≈ 138 µM); MIC [22]: 3.12 µg/mL (≈ 17.2 µM); MIC [23]: 1.56 µg/mL (≈ 8.62 µM); MIC [24]: 25 µg/mL (≈ 138 µM); inhibition of growth of fungi [25]: inhibits the growth of fungi; acute toxicity, survival ([26]; 10 mg/kg): all mice survived; acute toxicity, mortality ([26]; 30 mg/kg): all mice died; Solubility in acetone [27]: easily soluble; Solubility in chloroform [27]: soluble; Solubility in methanol [27]: easily soluble; therapeutic effect, observation with the naked eye [28, 30]: excellent therapeutic effects; treatment effect in thickening of the affected skin, flush, and scale ([28]; compared with 1% pyrrolnitrin and 1% clotrimazole, statement in words): best treatment effect; therapeutic effect, cultivation positive ratio [29, 30]: excellent therapeutic effects; decrease in the cultivation positive ratio ([29]; compared with pyrrolnitrin-dosed, clotrimazole-dosed and no treatment groups, in words): evident decrease
O=[N+]([O-])c1c(Cc2cc(Cl)cc(Cl)c2O)[nH]c(Cl)c1Cl [SF-2080B substance]	0.2 (≈ 0.562 µM)	0.2 (≈ 0.562 µM)	0.1 (≈ 0.281 µM)	0.1 (≈ 0.281 µM)	100 (≈ 281 µM)	100 (≈ 281 µM)	50 (≈ 140 µM)	50 (≈ 140 µM)	> 100	0.78 (≈ 2.19 µM)	> 100	> 100	> 100	> 100	100 (≈ 281 µM)	> 100	3.13 (≈ 8.79 µM)	–	–	–	MIC [18]: 0.4 µg/mL (≈ 1.12 µM); antibacterial/antimicrobial effectiveness against the strains tested [19]: very effective against a limited number of strains, but it is less active or lacks toward the others; acute toxicity, fraction of mice that survived ([26]; 100 mg/kg): 2/3; Solubility in acetone [27]: easily soluble; Solubility in chloroform [27]: soluble; Solubility in methanol [27]: easily soluble
Clc1ccccc1C(c1ccccc1)(c1ccccc1)n1ccnc1 [clotrimazole]	–	–	–	–	–	–	–	–	–	–	–	–	–	–	–	–	–	75	96	96	Effect on flush [28]: Ineffective; Effect on scale [28]: Effective; Effect on thickening of the affected skin [28]: Effective
O=[N+]([O-])c1c(Cl)cccc1-c1c[nH]cc1Cl [pyrrolnitrin]	–	–	–	–	–	–	–	–	–	–	–	–	–	–	–	–	–	62	87	87	Effect on flush [28]: Ineffective; Effect on scale [28]: Ineffective; Effect on thickening of the affected skin [28]: Effective
